Assays:
[1] = Steady-state plasma pharmacokinetics of rifabutin and 25-O-desacetylrifabutin, alone and with lopinavir/ritonavir; details: for AUC: AUCτ; for C0: pre-dose
[2] = co-administered RMP; trial protocol background; cited from earlier work
[3] = Plasma lopinavir and ritonavir pharmacokinetics during rifabutin co-administration; details: for Effect of the different doses of rifabutin on plasma concentrations: rifabutin 150 mg OD vs 150 mg TPW
[4] = design: method as in earlier work; details: study from the University of Cape Town; trial protocol background; cited from earlier work
[5] = South Africa, cited from earlier work
[6] = Adverse events during the trial
[7] = rifabutin 150 mg OD with lopinavir/ritonavir, end of dosing interval 24 h, median (range)
[8] = rifabutin 150 mg OD with lopinavir/ritonavir, median (range)
[9] = rifabutin 150 mg TPW plus LPV/r vs rifabutin 300 mg OD alone
[10] = rifabutin 150 mg TPW with lopinavir/ritonavir, median (range)
[11] = rifabutin 300 mg OD alone, median (range)
[12] = All patients, pooled whatever the RBT dosing, median (range)
[13] = LPV/r 400 mg/100 mg twice daily with RBT 150 mg OD, median (range)
[14] = rifabutin 150 mg OD plus LPV/r vs rifabutin 300 mg OD alone
[15] = LPV/r 400 mg/100 mg twice daily with RBT 150 mg TPW, median (range)

Compound: 25-O-desacetylrifabutin [25-O desacetyl rifabutin]
- Cmin n = 15 [1, 7]: 114 (73 – 253) ng/mL
- Cmin n = 25 [1, 7]: 115 (59 – 253) ng/mL
- Tmax [1, 8]: 4 (2 – 8) h
- C0 geometric mean ratio (90% CI) [1, 9]: 4.35 (3.14;6.02)
- Cmin n = 15 ([1]; rifabutin 150 mg TPW with lopinavir/ritonavir, end of dosing interval 48 h, median (range)): 67 (11 – 214) ng/mL
- Tmax [1, 10]: 4 (2 – 6) h
- Cmin n = 15 ([1]; rifabutin 300 mg OD alone, end of dosing interval 24 h, median (range)): 6 (0 – 33) ng/mL
- Tmax [1, 11]: 3 (0 – 5) h

Compound: O=C1Nc2ccc(Cl)cc2[C@@](C#CC2CC2)(C(F)(F)F)O1 [EFV, efavirenz]
- Reduction of bioavailability by RMP [2]: approximately 25%

Compound: Cc1cccc(C)c1OCC(=O)N[C@@H](Cc1ccccc1)[C@@H](O)C[C@H](Cc1ccccc1)NC(=O)[C@H](C(C)C)N1CCCNC1=O [Lopinavir]
- C0 (trough concentration) [3, 12]: 8739 (<50– 31171) ng/mL
- C0 (trough concentration) [3, 13]: 9155 (399–27567) ng/mL
- Effect of the different doses of rifabutin on plasma concentrations [3]: no significant effect

Compound: Cc1ccnc2c1NC(=O)c1cccnc1N2C1CC1 [NVP, nevirapine]
- Reduction of bioavailability by RMP [2]: 35%

Compound: CO[C@H]1/C=C/O[C@@]2(C)Oc3c(C)c(O)c4c(O)c(c(/C=N/N5CCN(C)CC5)c(O)c4c3C2=O)NC(=O)/C(C)=C\C=C\[C@H](C)[C@H](O)[C@@H](C)[C@@H](O)[C@@H](C)[C@H](OC(C)=O)[C@@H]1C [RMP, rifampicin]
- Reduction of drug concentrations by HIV infection [4]: 39%

Compound: CO[C@H]1/C=C/O[C@@]2(C)Oc3c(C)c(O)c4c(c3C2=O)C2=NC3(CCN(CC(C)C)CC3)NC2=C(NC(=O)/C(C)=C\C=C\[C@H](C)[C@H](O)[C@@H](C)[C@@H](O)[C@@H](C)[C@H](OC(C)=O)[C@@H]1C)C4=O [Rifabutin]
- AUCτ, median ([5]; 300 mg OD dose): 3053 ng·h/mL
- Patients with areas under the curve less than 4.5 µg.h/mL ([5]; intermittent dose (three times a week) with LPV/r): over 85%
- Uveitis ([6]; 33 enrolled patients): no uveitis
- Cases of neutropenia ([6]; 33 enrolled patients, one grade 3, none grade 4): 4
- Total adverse events (all grades together) ([6]; 33 enrolled patients, rifabutin-based TB treatment with d4T/3TC/LPV/r, whole follow-up): 124
- Hepatic events with raised levels of liver enzymes ([6]; events occurring in 25 patients, 33 in the first 2 months, 23 after rifabutin was stopped): 56
- Number of patients with AUCτ less than 4.5 µg.h/mL ([1]; 150 mg OD regimen with LPV/r): one
- Number of patients with AUCτ less than 4.5 µg.h/mL ([1]; 150 mg TPW regimen with LPV/r): four
- Number of patients with Cmax less than 0.3 µg/mL ([1]; 150 mg TPW regimen with LPV/r): one
- Number of patients with AUCτ less than 4.5 µg.h/mL ([1]; 300 mg OD regimen alone): six
- Tmax ([1]; human, plasma, oral, 150 mg): 3 h
- AUC ([1]; human, plasma, oral, 150 mg, rifabutin 150 mg OD with lopinavir/ritonavir, τ 24 h, median (range)): 7290 ng·h/mL
- AUC ([1]; human, plasma, oral, 150 mg, rifabutin 150 mg TPW with lopinavir/ritonavir, τ 48 h, median (range)): 7340 ng·h/mL
- Cmax ([1]; human, plasma, oral, 150 mg, rifabutin 150 mg OD with lopinavir/ritonavir, median (range)): 671 ng/mL
- Cmax ([1]; human, plasma, oral, 150 mg, rifabutin 150 mg TPW with lopinavir/ritonavir, median (range)): 544 ng/mL
- AUC ([1]; human, plasma, oral, 300 mg, rifabutin 300 mg OD alone, τ 24 h, median (range)): 5640 ng·h/mL
- Cmax ([1]; human, plasma, oral, 300 mg, rifabutin 300 mg OD alone, steady state, median (range)): 792 ng/mL
- concentration at 24 h ([1]; human, plasma, oral, Cmin n = 15, rifabutin 150 mg OD with lopinavir/ritonavir, end of dosing interval 24 h, median (range)): 161 ng/mL
- concentration at 48 h ([1]; human, plasma, oral, Cmin n = 15, rifabutin 150 mg TPW with lopinavir/ritonavir, end of dosing interval 48 h, median (range)): 54 ng/mL
- concentration at 24 h ([1]; human, plasma, oral, Cmin n = 15, rifabutin 300 mg OD alone, end of dosing interval 24 h, median (range)): 61 ng/mL
- concentration at 24 h ([1]; human, plasma, oral, Cmin n = 25, rifabutin 150 mg OD with lopinavir/ritonavir, end of dosing interval 24 h, median (range)): 169 ng/mL
- concentration at 24 h ([1]; human, plasma, oral, Cmin n = 25, rifabutin 300 mg OD alone, end of dosing interval 24 h, median (range)): 79 ng/mL
- AUCτ geometric mean ratio (90% CI) ([1]; rifabutin 150 mg OD plus LPV/r (AUC24h) vs rifabutin 300 mg OD alone): 1.32 (1.16;1.51)
- C0 geometric mean ratio (90% CI) [1, 14]: 2.61 (2.13;3.19)
- Cave geometric mean ratio (90% CI) [1, 14]: 1.32 (1.16;1.51)
- Cmax geometric mean ratio (90% CI) [1, 14]: 0.88 (0.75;1.04)
- Cave (AUCτ/τ) [1, 8]: 304 (147–521) ng/mL
- C0 [1, 8]: 180 (121 – 310) ng/mL
- AUCτ geometric mean ratio (90% CI) ([1]; rifabutin 150 mg TPW plus LPV/r (AUC48h) vs rifabutin 300 mg OD alone): 1.12 (0.92;1.37)
- C0 geometric mean ratio (90% CI) [1, 9]: 0.94 (0.73;1.21)
- Cave geometric mean ratio (90% CI) [1, 9]: 0.56 (0.46;0.69)
- Cmax geometric mean ratio (90% CI) [1, 9]: 0.65 (0.51;0.83)
- Decrease in average steady state concentration (Cave) ([1]; rifabutin 150 mg TPW with LPV/r compared with rifabutin 300 mg alone): 44%
- Decrease in Cmax ([1]; rifabutin 150 mg TPW with LPV/r vs rifabutin monotherapy): 35%
- Cave (AUCτ/τ) [1, 10]: 153 (30–227) ng/mL
- Tmax [1, 10]: 3 (0 – 5) h
- C0 [1, 10]: 70 (25 – 413) ng/mL
- Mean increase in average steady state concentration (Cave) ([1]; rifabutin 150 mg daily with LPV/r compared with rifabutin 300 mg alone): 32%
- Cave (AUCτ/τ) [1, 11]: 235 (113–370) ng/mL
- C0 [1, 11]: 74 (13 – 161) ng/mL
- Bioequivalence of Cave with rifabutin alone (90% CI within 0.80 to 1.25) ([1]; the two tested dosing regimens (150 mg OD, 150 mg TPW) combined with lopinavir/ritonavir): failed to show bioequivalence

Compound: CC(C)c1nc(CN(C)C(=O)N[C@H](C(=O)N[C@@H](Cc2ccccc2)C[C@H](O)[C@H](Cc2ccccc2)NC(=O)OCc2cncs2)C(C)C)cs1 [Ritonavir]
- C0 (trough concentration) [3, 12]: 303 (25–680) ng/mL
- C0 (trough concentration) [3, 13]: 314 (25– 569) ng/mL
- C0 (trough concentration) [3, 15]: 257 (25–680) ng/mL
- Cmax [3, 15]: 816 (405–2484) ng/ml
- Effect of the different doses of rifabutin on plasma concentrations [3]: no significant effect

From article PMC3898920 (PLoS ONE, 2014)
